Reference: US8410097B2 (priority 2005, dated 2013)
pKi: −log10 of the molar value. Where two headings read alike, the source gives them in different places.

Assays:
[1] = target: T1, CB1 cannabinoid receptor (Rattus norvegicus, UniProt P20272); assay: biochemical; assay type: binding; details: for Ki / pKi: rat forebrain membranes; for Selectivity CB1: CB1 over CB2 binding selectivity (ratio of Ki); for pKi: 0.8 nM [3H] CP-55,940
T1 construct: membranes were prepared from rat forebrain membranes; from tissue; host or cells: rat forebrain membranes
T1 sequence (P20272 whole entry): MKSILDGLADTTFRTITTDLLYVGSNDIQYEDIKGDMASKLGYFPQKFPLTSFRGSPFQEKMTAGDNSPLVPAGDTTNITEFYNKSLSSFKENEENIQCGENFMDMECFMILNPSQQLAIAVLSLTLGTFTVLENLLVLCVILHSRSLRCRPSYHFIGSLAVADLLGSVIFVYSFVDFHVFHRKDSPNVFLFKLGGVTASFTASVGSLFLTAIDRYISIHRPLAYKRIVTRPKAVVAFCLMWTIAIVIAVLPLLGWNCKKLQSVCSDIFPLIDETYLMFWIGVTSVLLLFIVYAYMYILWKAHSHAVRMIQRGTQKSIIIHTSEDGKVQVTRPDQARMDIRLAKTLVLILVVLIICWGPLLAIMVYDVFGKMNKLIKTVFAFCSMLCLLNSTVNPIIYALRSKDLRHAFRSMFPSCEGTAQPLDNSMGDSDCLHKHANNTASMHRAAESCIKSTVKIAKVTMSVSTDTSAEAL
Procedure: Some of the inventive analogs were tested for CB2 receptor binding affinity and for CB1 receptor affinity (to determine selectivity). […] The lower the Ki value the higher the binding affinity. […]
Membranes, previously frozen at −80° C., were thawed on ice. To the stirred suspension was added three volumes of TME (25 mM Tris-HCl buffer, 5 mM MgCl2 and 1 mM EDTA) at a pH 7.4. The suspension was incubated at 4° C. for 30 min. At the end of the incubation, the membranes were pelleted and washed three times with TME.
(§1) The treated membranes were subsequently used in the binding assay described below. Approximately 30 μg of membranes were incubated in silanized 96-well microtiter plate with TME containing 0.1% essentially fatty acid-free bovine serum albumin (BSA), 0.8 nM [^3H] […] Radioactivity was detected using MicroScint 20 scintillation cocktail added directly to the dried filterplates, and the filterplates were counted using a Packard Instruments Top-Count. […] Data collected from three independent experiments performed with duplicate determinations was normalized between 100% and 0% specific binding for [^3H] […] The normalized data was analyzed using a 4-parameter nonlinear logistic equation to yield IC50 values.

[2] = target: CB2 cannabinoid receptor (Mus musculus, UniProt P47936); assay: biochemical; assay type: binding; details: mouse spleen membranes; for Ki: read-out: Receptor Affinities Ki (nM) CB2; for pKi: [3H] CP-55,940
CB2 cannabinoid receptor, sequence (P47936 whole entry): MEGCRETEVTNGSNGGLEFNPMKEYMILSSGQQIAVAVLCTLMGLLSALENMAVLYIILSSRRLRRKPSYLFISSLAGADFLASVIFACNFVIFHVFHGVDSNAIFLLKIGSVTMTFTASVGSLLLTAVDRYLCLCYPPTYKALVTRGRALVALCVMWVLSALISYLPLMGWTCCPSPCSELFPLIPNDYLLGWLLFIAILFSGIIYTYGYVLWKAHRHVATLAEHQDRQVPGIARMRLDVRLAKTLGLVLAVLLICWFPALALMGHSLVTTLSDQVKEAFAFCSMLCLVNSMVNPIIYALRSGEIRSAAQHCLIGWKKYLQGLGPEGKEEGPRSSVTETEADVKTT
Procedure: Some of the inventive analogs were tested for CB2 receptor binding affinity and for CB1 receptor affinity (to determine selectivity). […] The lower the Ki value the higher the binding affinity.
as §1
Silanized centrifuge tubes were used throughout to minimize receptor loss due to adsorption. The CB2 binding assay was conducted in the same manner as for the CB1 binding assay. The binding affinities (Ki) were also expressed in nanomoles (nM).

[3] = Receptor Affinities Ki (nM) CB1, Table 8
[4] = Receptor Affinities Ki (nM) CB1, Table 10

With `N#CCCC#Cc1ccc(-c2c(CO)c(C(=O)NN3CCCCC3)nn2-c2ccc(Cl)cc2Cl)cc1` [Compound 3-1] the Ki [1, 3] was 6 nM, the “Selectivity CB1” value ([1]; Table 8) was 44 and the Ki ([2]; Table 8) was 265 nM.

In the case of `Cc1c(C(=O)N(C)C2CCCCC2)nc(-c2ccc(Cl)cc2Cl)n1-c1ccc(-c2nnn[nH]2)cc1` [Compound 1-22], the pKi ([1]; Table 6, read-out: CB1 Ki) was 6.44 and the pKi ([2]; Table 6, read-out: CB2 Ki) was 4.58.

`Cc1c(C(=O)NN2CCCCC2)nc(-c2ccc(Cl)cc2Cl)n1-c1ccc(-c2cccnc2)cc1` [Compound 1-14] showed a pKi ([1]; CB1 Ki, Table 6) of 7.40 and a pKi ([2]; Table 6, read-out: CB2 Ki) of 5.48.

Compound `Cc1c(C(=O)NN2CCCCC2)nc(-c2ccc(Cl)cc2Cl)n1-c1ccc(I)cc1` [Compound 1-6] has a pKi ([1]; CB1 Ki, Table 6) of 8.57 and a pKi ([2]; Table 6, read-out: CB2 Ki) of 5.37.

For `Cc1c(C(=O)NN2CCCCC2)nc(-c2ccc(Cl)cc2Cl)n1-c1ccc(Br)cc1` [Compound 1-2], the pKi ([1]; CB1 Ki, Table 6) was 7.94 and the pKi ([2]; CB2 Ki, Table 6) was 6.34.

With `Cc1c(C(=O)NN2CCCCC2)nn(-c2ccc(Cl)cc2Cl)c1-c1ccc(C#CC2(O)CCCC2)cc1` [Compound 5-8] the Ki [1, 4] was 9 nM, the “Selectivity CB1” value ([1]; Table 10) was 1.5 and the Ki ([2]; Table 10) was 13 nM.

With `Cc1c(C(=O)NN2CCCCC2)nc(-c2ccc(Cl)cc2Cl)n1-c1ccc(C#N)cc1` [Compound 1-8] the pKi ([1]; CB1 Ki, Table 6) was 7.24 and the pKi ([2]; Table 6, read-out: CB2 Ki) was 5.14.

In the case of `Cc1c(C(=O)NN2CCCCC2)nn(-c2ccc(Cl)cc2Cl)c1-c1ccc(C#CCN)cc1.Cl` [Compound 5-5], the Ki [1, 4] was 30 nM, the “Selectivity CB1” value ([1]; Table 10) was 1 and the Ki ([2]; Table 10) was 30 nM.

Work on `Cc1c(C(=O)NN2CCCCC2)nn(-c2ccc(Cl)cc2Cl)c1-c1ccc(C#CCCC#N)cc1` [Compound 2-3] yielded a pKi ([1]; CB1 Ki, Table 7) of 9.46 and a pKi ([2]; Table 7, read-out: CB2 Ki) of 6.90.

`Cc1c(C(=O)NN2CCCCC2)nn(-c2ccc(Cl)cc2Cl)c1-c1ccc(C#CC2CC2)cc1` [Compound 5-6] was tested, and the Ki [1, 4] was 12 nM, the “Selectivity CB1” value ([1]; Table 10) was 1.5 and the Ki ([2]; Table 10) was 20 nM.

In the case of `N=C(S)c1ccc(-n2c(-c3ccc(Cl)cc3Cl)nc(C(=O)NN3CCCCC3)c2CO)cc1` [Compound 1-29], the pKi ([1]; CB1 Ki, Table 6) was 7.32 and the pKi ([2]; Table 6, read-out: CB2 Ki) was 6.19.

For `O=C(Nc1nc(-c2ccc(Cl)cc2Cl)n(-c2ccc(I)cc2)c1CBr)NC1CCCCC1` [Compound 1-38], the pKi ([1]; CB1 Ki, Table 6) was 8.30 and the pKi ([2]; Table 6, read-out: CB2 Ki) was 7.12.

For `Cc1c(C(=O)NN2CCCCC2)nn(-c2ccc(Cl)cc2Cl)c1-c1ccc(C#CCCCCO)cc1` [Compound 3-7], the Ki [1, 3] was 3 nM, the “Selectivity CB1” value ([1]; Table 8) was 39 and the Ki ([2]; Table 8) was 116 nM.

With `Cc1c(C(=O)NN2CCCCC2)nn(-c2ccc(Cl)cc2Cl)c1-c1ccc(C#Cc2ccncc2)cc1` [Compound 5-12] the Ki [1, 4] was 8 nM, the “Selectivity CB1” value ([1]; Table 10) was 52 and the Ki ([2]; Table 10) was 421 nM.

For `Cc1c(C(=O)NN2CCCCC2)nn(-c2ccc(Cl)cc2Cl)c1-c1ccc(C#CCN(C)C)cc1.Cl` [Compound 5-3], the Ki [1, 4] was 30 nM, the “Selectivity CB1” value ([1]; Table 10) was 2.2 and the Ki ([2]; Table 10) was 66 nM.

For `Cc1c(NC(=O)N(C)C2CCCCC2)nc(-c2ccc(Cl)cc2Cl)n1-c1ccc(Br)cc1` [Compound 1-37], the pKi ([1]; CB1 Ki, Table 6) was 7.85 and the pKi ([2]; Table 6, read-out: CB2 Ki) was 5.85.

`Cc1c(NC(=O)NC2CCCCC2)nc(-c2ccc(Cl)cc2Cl)n1-c1ccc(I)cc1` [Compound 1-36] gave a pKi ([1]; CB1 Ki, Table 6) of 8.92 and a pKi ([2]; Table 6, read-out: CB2 Ki) of 5.14.

`Cc1c(C(=O)NN2CCCCC2)nn(-c2ccc(Cl)cc2Cl)c1-c1ccc(CCCCN=[N+]=[N-])cc1` [Compound 4-5] was tested, and the Ki ([1]; Receptor Affinities Ki (nM) CB1, Table 9) was 3 nM, the “Selectivity CB1” value ([1]; Table 9) was 59 and the Ki ([2]; Table 9) was 177 nM.

Work on `CN(C(=O)c1nc(-c2ccc(Cl)cc2Cl)n(-c2ccc(-c3nnnn3C)cc2)c1CO)C1CCCCC1` [Compound 1-26] yielded a pKi ([1]; Table 6, read-out: CB1 Ki) of 6.99 and a pKi ([2]; Table 6, read-out: CB2 Ki) of 5.88.

`N#Cc1ccc(-n2c(-c3ccc(Cl)cc3Cl)nc(C(=O)NN3CCCCC3)c2CO)cc1` [Compound 1-9] showed a pKi ([1]; CB1 Ki, Table 6) of 7.29 and a pKi ([2]; Table 6, read-out: CB2 Ki) of 5.26.

`O=C(Nc1nc(-c2ccc(Cl)cc2Cl)n(-c2ccc(I)cc2)c1CO)NC1CCCCC1` [Compound 1-39] gave a pKi ([1]; CB1 Ki, Table 6) of 8.17 and a pKi ([2]; Table 6, read-out: CB2 Ki) of 5.87.

`Cc1c(C(=O)NN2CCCCC2)nc(-c2ccc(Cl)cc2Cl)n1-c1ccc(-c2nnn[nH]2)cc1` [Compound 1-16] gave a pKi ([1]; Table 6, read-out: CB1 Ki) of 6.39 and a pKi ([2]; Table 6, read-out: CB2 Ki) of 4.97.

`Cc1c(C(=O)NN2CC3CCCC3C2)nn(-c2ccc(Cl)cc2Cl)c1-c1ccc(C#CCCO)cc1` (stereo not shown) [Compound 3-6] was tested, and the Ki [1, 3] was 7 nM, the “Selectivity CB1” value ([1]; Table 8) was 28 and the Ki ([2]; Table 8) was 199 nM.
